According to publication PMC10142505, “Synthesis, Evaluation of Enzyme Inhibition and Redox Properties of Potential Dual COX-2 and 5-LOX Inhibitors” (Pharmaceuticals, 2023):
Marks after values point to notes of the source that are not given here.

Test system: human serum pool
Test: Redox activity (oxy score from TOS, PAB, TAS, SHG) in vitro in human serum pool
Conditions: 37 °C, median (interquartile range); for Oxy score (OS), 2 h incubation, TBH added / Oxy score (OS), 24 h incubation, TBH added: with TBH added; for Oxy score (OS), 2 h incubation / Oxy score (OS), 24 h incubation: without TBH; for Oxy score (OS), 2 h incubation: average of five concentrations
Protocol: The remains of the serum samples were taken from healthy subjects after biochemical analysis; these subjects participated in regular medical examinations at the Military Medical Academy in Belgrade and consented to the formation of a serum pool. Neither the patients’ data nor their identities were used. Serum pool samples were prepared and aliquoted (450 µL portions) according to the routine procedure for in-house controle samples and preserved at the -80 °C until analysis. Five serial dilutions of the tested compounds (concentrations: 1000 µM, 500 µM, 250 µM, 125 µM and 62.5 µM) were added alone (50 µL) or in combination (25 µL) with oxidant TBH (25 µM) into 450 µL of serum. The compounds were dissolved in dimethyl sulfoxide (DMSO) for stock solution (1000 µM), while a PBS buffer (phosphate buffered saline) pH = 7.4 was used for serial dilutions (500 µM, 250 µM, 125 µM and 62.5 µM). Deionized water was used as a blank. DMSO and buffer pH = 7.4 were used as a control, while trolox solution (2 mmol/L) was used as a standard. All samples were incubated in duplicate for 2 h and 24 h at 37 °C.
Oxidative stress parameters (total antioxidative status (TAS), total oxidative status (TOS), total concentration of sulfhydryl group (SHG) and prooxidative–antioxidative balance (PAB)) were determined in order to calculate prooxidative score, antioxidative score and oxy score (OS). These parameters were determined in serum.
Total antioxidative status (TAS) was measured using Erel’s method, which was further optimized by Kotur-Stevuljevic et al. in 2015 [34]. ABTS (2,2-azino-bis(3-ethyl-benzthiazoline-6-sulfonic acid) is oxidized to a green-colored ABTS^+ cation by hydrogen peroxide in the acetate buffer (pH = 3.6). This stable cation is chromogen, and the presence of antioxidants in the samples causes its discoloration proportional to their concentrations. The absorbance was measured using a SPECTROstar Nano Microplate Reader (BMG Labtech, Ortenberg, Germany). The reaction was calibrated with Trolox and the TAS values are expressed as mmol trolox equivalent/L.
Total oxidative status (TOS) was measured using Erel’s method. Here, a ferrous ion-o-dianisidine complex is oxidized to ferric ion by the oxidants present in the sample. The ferric ion forms a colored complex with xylenol orange in an acidic environment and in the presence of glycerol. The intensity of the color of the formed complex is proportional to the total contents of oxidants in the sample. The absorbance was measured at 560 nm using a SPECTROstar Nano Microplate Reader (BMG Labtech, Ortenberg, Germany). The reaction was calibrated with hydrogen peroxide and the TOS values are expressed as µmol H2O2 equivalent/L.
Prooxidant–antioxidant balance (PAB) was measured according to procedures in the literature. Here, hydrogen peroxide is determined in the presence of antioxidants in the sample. Both of them (hydrogen peroxide and antioxidants (including uric acid)) react with chromogen TMB (3,3′,5,5′-tetramethylbenzidine) simultaneously. The hydrogen peroxide and chromogen reaction is enzymatically catalyzed with peroxidase, while the antioxidants–chromogen reaction is non-enzymatic. The intense blue color, produced as a result of the reaction between hydrogen peroxide and TMB, is decolorized by the reaction of the antioxidant with the TMB. The resulting color (result of two competitive reactions) is proportional to the ratio of antioxidants to prooxidants. The absorbance was measured at 450 nm. Different ratios of hydrogen peroxide and uric acid solutions were used to make a standard curve. The PAB results are expressed in hydrogen peroxide concentrations.
Total Sulfydryl Groups Content (SHG) was measured using a modified version of Ellman’s method. This method is based on the reaction between DTNB ([…]) and aliphatic thiol compounds in an alkaline environment (pH = 9.0). […]

Row | Compound | Oxy score (OS), 2 h incubation, TBH added | Oxy score (OS), 2 h incubation | Oxy score (OS), 24 h incubation, TBH added | Oxy score (OS), 24 h incubation
1 | COc1ccc2c(c1)c(CNC(=O)NO)c(C)n2C(=O)c1ccc(Cl)cc1 [Compound 1, N’-hydroxy-N-[(1-(4-chlorobenzoyl)-5-methoxy-2-methyl-3-indolyl)methyl]urea] | 6.44 (5.51–7.02) | −0.43 (−1.27–3.13) | 5.46 (4.96–6.20) | 0.71 (0.51–0.80)
2 | CC(NC(=O)NO)c1ccc(-c2ccccc2)c(F)c1 (centres unmarked) [Compound 2] | 5.20 (3.70–5.42) | 3.28 (−0.68–16.66) | 6.79 (4.37–7.90) | 0.33 (−0.07–0.85)
3 | O=C(NO)NCc1ccccc1Nc1c(Cl)cccc1Cl [Compound 3, N’-hydroxy-N-[(2-(2,6-dichloroanilino)phenyl)methyl]urea] | 5.81 (4.64–7.25) | 1.58 (−0.38–3.45) | 1.93 (0.65–5.02) ^# | 1.31 (−0.31–1.75)
4 | COC(=O)C(Cc1c[nH]cn1)NC(=O)c1cc(C(C)(C)C)c(O)c(C(C)(C)C)c1 (centres unmarked) [Compound 4, 2-(3,5-di-tert-butyl-4-hydroxy-benzoylamino)-3-(1H-imidazol-4-yl)-propionic acid methyl ester] | 3.68 (3.36–8.40) | 0.24 (−0.24–0.89) | 7.86 (7.20–10.68) | 3.00 (1.99–3.93) **
5 | COC(=O)CNC(=O)c1cc(C(C)(C)C)c(O)c(C(C)(C)C)c1 [Compound 5, (3,5-di-tert-butyl-4-hydroxy-benzoylamino)-acetic acid methyl ester] | 2.83 (2.55–3.39) | 0.29 (−0.30–1.23) | 5.64 (5.07–6.47) | 2.14 (1.37–2.62) **
6 | C=CCNC(=O)c1cc(C(C)(C)C)c(O)c(C(C)(C)C)c1 [Compound 6, N-allyl-3,5-di-tert-butyl-4-hydroxy-benzamide] | 3.77 (3.37–4.20) | 0.52 (0.08–1.52) | 6.07 (4.34–7.02) | 3.09 (2.50–3.67)
7 | C#CCNC(=O)c1cc(C(C)(C)C)c(O)c(C(C)(C)C)c1 [Compound 7, 3,5-di-tert-butyl-4-hydroxy-N-prop-2-ynyl-benzamide] | 6.62 (6.42–6.98) | 3.12 (2.21–3.47) | 10.54 (4.45–27.42) | 2.55 (2.18–2.92)
8 | CCOc1ccccc1NC(=O)N(C)C [Compound 8, 3-(2-ethoxy-phenyl)-1,1-dimethyl-urea] | 8.43 (5.76–13.81) | 0.03 (−0.96–1.46) | −0.55 (−0.67–1.48) ^## | −0.52 (−1.24–3.03)
9 | CN(C)C(=O)Nc1ccccc1C(=O)O [Compound 9, 2-(3,3-dimethyl-ureido)-benzoic acid] | 5.97 (4.06–8.25) | 0.09 (−0.79–1.80) | −0.19 (−0.68–1.56) | −0.18 (−1.55–2.91)
10 | CCOc1ccccc1NC(=O)Nc1ccc([N+](=O)[O-])cc1 [Compound 10, 1-(2-ethoxy-phenyl)-3-(4-nitro-phenyl)-urea] | 6.34 (5.07–22.02) |  | 0.97 (−0.04–4.08) | −0.97 (−1.53–3.85)
11 | CC(=O)N(O)C(C)c1ccc(CC(C)C)cc1 (centres unmarked) [Compound 11] | 5.15 (4.76–6.74) | −0.22 (−0.65–0.82) | 3.18 (2.92–3.60) ^## | 1.83 (1.49–2.18) *
12 | COc1ccc2cc(C(C)N(O)C(C)=O)ccc2c1 (centres unmarked) [Compound 12, N-hydroxy-N-[1-(6-methoxy-naphthalen-2-yl)-ethyl]-acetamide] | 4.79 (4.25–5.43) | 0.24 (−0.06–0.58) | 3.97 (3.44–6.33) | 2.49 (2.03–2.66) **
13 | CC(C)(C)c1cc(C=C2SC(=S)N(N)C2=O)cc(C(C)(C)C)c1O [Compound 13, 3-amino-5-(3,5-di-tert-butyl-4-hydroxy-benzylidene)-2-thioxo-thiazolidin-4-one] | 5.89 (5.63–6.14) | 0.75 (0.56–0.94) |  | 0.64 (0.19–1.01)
